Columns and labels:
[1] = target: T1, PKCα (Homo sapiens, UniProt P17252); experiment: CETSA and isothermal dose-response, PKCα; type: cell-based; details: Jurkat cells, 48° C.
T1 construct: Jurkat cell was used for bryostatin 1; endogenous in cells; host or cells: Jurkat clone E6-1
Experimental: HEK293T cells were harvested with trypsin/EDTA solution and resuspended in a conical tube before compound treatment. […] After the compound treatment, cells were aliquoted, heated to a range of temperature for 3 min, and cooled to 25° C. for 3 min. The heated cells were harvested, washed with PBS, and resuspended with lysis buffer (PBS supplemented with protease inhibitor cocktail). The cell suspension was freeze-thawed three times with liquid nitrogen for cell lysis. Soluble fraction was separated from the cell lysate following centrifugation at 20,000 g for 20 min at 4° C. Procedures for isothermal dose-response (ITDR) analysis was identical with the above-mentioned procedures except that cells were treated with various compound concentrations and heated at a fixed temperature.
Western blot—The soluble fraction was mixed with 5×Laemmli buffer followed by heating at 95° C. for 5 min. Proteins were separated by SDS-PAGE and transferred to PVDF membranes. […] The membranes were developed with Amersham ECL prime western blotting detection reagent [GE Healthcare], and detected by ChemiDoc [Bio-Rad]. The relative band intensities to 37° C. was calculated within each of drug-treated group and control group each for the CETSA curves. For ITDR curves, the relative band intensities to DMSO group was calculated. […]

[2] = target: T1, PKCα; experiment: Translocation of PKCα between soluble and insoluble fraction (western blot); type: cell-based; details: lysis buffer without a mild detergent
[3] = test system: translation of the luciferase reporter gene; experiment: In vitro protein translation (luciferase reporter); type: biochemical; details: 30° C. for 1 h
Experimental: (§1) In vitro protein translation—TNT quick coupled transcription/translation system [Promega] was used for in vitro translation. TNT Quick Master Mix and T7 luciferase control DNA were mixed according to the manufacturer's protocol, and incubated with compounds at 30° C. for 1 h. After the addition of Luciferase assay reagent [Promega], luminescence from the control luciferase product was read by Synergy HT [BioTek] to measure the effect of compounds on protein translation.

[4] = target: T2, nucleophosmin (NPM) (Homo sapiens, UniProt P06748); experiment: CETSA and isothermal dose-response, NPM; type: cell-based; details: HEK293T cells, compared to β-tubulin and GAPDH
T2 construct: hordenine with HEK293T cells at 20 μM for 3 h; endogenous in cells; host or cells: HEK293T
Experimental: (§2) Western blot—The soluble fraction was mixed with 5×Laemmli buffer followed by heating at 95° C. for 5 min. Proteins were separated by SDS-PAGE and transferred to PVDF membranes. The membranes were in tris-buffered saline with Tween-20 (TBST) including 2% BSA for 1 h at 4° C., and incubated with primary antibodies (anti-DHFR [ab133546, abcam], anti-TYMS [3766, Cell signaling], anti-PKCα [2056, Cell signaling], anti-PKCβI [ab195039, abcam], anti-PKCβII [ab32026, abcam], anti-PKCγ [402 ab131222, abcam], anti-PKCδ [9616, Cell signaling], anti-PKCε [ab124806, abcam], anti-PKCμ [2052, Cell signaling], anti-PKCθ [ab110728, abcam], anti-PKCζ [9368, Cell signaling], anti-NPM [ab52644, abcam], anti-RPSA [ab133645, abcam], anti-SET [ab176567, abcam], anti-EEF1D [ab88868, abcam], anti-GAPDH [2118, Cell signaling], and anti-β-tubulin [2146, Cell signaling])) overnight. The membrane was then washed with TBST and incubated with secondary antibodies (anti-rabbit IgG, HRP linked [7074, Cell signaling]) for 1 h at room temperature. The membranes were developed with Amersham ECL prime western blotting detection reagent [GE Healthcare], and detected by ChemiDoc [Bio-Rad]. The relative band intensities to 37° C. was calculated within each of drug-treated group and control group each for the CETSA curves. For ITDR curves, the relative band intensities to DMSO group was calculated.

[5] = target: T3, elongation factor 1-delta (EEF1D) (Homo sapiens, UniProt P29692); experiment: CETSA, EEF1D; type: cell-based; details: HEK293T cells
T3 construct: hordenine with HEK293T cells at 20 μM for 3 h; endogenous in cells; host or cells: HEK293T
T3 sequence (P29692 1-281): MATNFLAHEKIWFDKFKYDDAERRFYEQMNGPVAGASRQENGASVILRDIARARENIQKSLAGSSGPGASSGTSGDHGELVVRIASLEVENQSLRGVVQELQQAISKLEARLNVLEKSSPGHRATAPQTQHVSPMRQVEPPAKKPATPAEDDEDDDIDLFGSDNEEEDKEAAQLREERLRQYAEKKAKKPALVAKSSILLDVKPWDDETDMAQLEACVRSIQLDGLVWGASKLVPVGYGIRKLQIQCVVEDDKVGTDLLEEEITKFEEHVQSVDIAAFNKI
Experimental: as §2

[6] = target: T4, protein SET (SET) (Homo sapiens, UniProt Q01105); experiment: CETSA, SET; type: cell-based; details: HEK293T cells
T4 construct: hordenine with HEK293T cells at 20 μM for 3 h; endogenous in cells; host or cells: HEK293T
Experimental: as §2

[7] = target: T5, 40S ribosomal protein SA (RPSA) (Homo sapiens, UniProt P08865); experiment: CETSA, RPSA; type: cell-based; details: HEK293T cells
T5 construct: hordenine with HEK293T cells at 20 μM for 3 h; endogenous in cells; host or cells: HEK293T
Experimental: as §2

[8] = target: T6, NPM (Oryctolagus cuniculus, UniProt G1T0N4); experiment: Nucleophosmin depletion for functional validation (in vitro translation); type: biochemical; details: 10 μM of hordenine, 30° C. for 1 h
T6 construct: incubated with the in vitro translation system to scavenge NPM; tissue Promega; host or cells: TNT Quick Master Mix (reticulocyte lysate, own knowledge)
Experimental: as §1
Nucleophosmin depletion for functional validation—Protein G sepharose beads [Sigma] were washed with PBS and incubated with anti-NPM antibody at 4° C. for 2 h. Unbound antibodies were washed away. The anti-NPM bound Protein G beads were mixed with TNT Quick Master Mix and incubated at 4° C. for 2 h. The beads were removed by centrifugation, and the supernatant was incubated with T7 luciferase control DNA and 10 μM of hordenine at 30° C. for 1 h. Luminescence was read after the addition of Luciferase assay reagent.

T2 sequence (P06748 whole entry): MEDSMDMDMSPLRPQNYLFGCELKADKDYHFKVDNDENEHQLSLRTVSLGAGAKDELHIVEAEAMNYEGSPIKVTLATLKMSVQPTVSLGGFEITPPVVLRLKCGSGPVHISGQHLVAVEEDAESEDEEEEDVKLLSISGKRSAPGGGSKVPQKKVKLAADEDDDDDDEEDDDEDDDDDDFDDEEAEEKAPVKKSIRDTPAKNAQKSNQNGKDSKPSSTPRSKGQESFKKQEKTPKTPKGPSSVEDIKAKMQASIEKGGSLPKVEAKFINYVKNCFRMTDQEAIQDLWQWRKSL
T6 sequence (G1T0N4 1-294): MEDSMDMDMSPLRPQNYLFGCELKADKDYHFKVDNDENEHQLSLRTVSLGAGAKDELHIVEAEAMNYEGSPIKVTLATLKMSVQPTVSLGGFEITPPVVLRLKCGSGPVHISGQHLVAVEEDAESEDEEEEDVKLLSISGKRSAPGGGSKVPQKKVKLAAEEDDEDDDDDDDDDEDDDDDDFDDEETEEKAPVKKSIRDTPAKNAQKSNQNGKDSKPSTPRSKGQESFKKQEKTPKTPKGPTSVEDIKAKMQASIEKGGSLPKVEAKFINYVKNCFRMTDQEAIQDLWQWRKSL
T4 sequence (Q01105 whole entry): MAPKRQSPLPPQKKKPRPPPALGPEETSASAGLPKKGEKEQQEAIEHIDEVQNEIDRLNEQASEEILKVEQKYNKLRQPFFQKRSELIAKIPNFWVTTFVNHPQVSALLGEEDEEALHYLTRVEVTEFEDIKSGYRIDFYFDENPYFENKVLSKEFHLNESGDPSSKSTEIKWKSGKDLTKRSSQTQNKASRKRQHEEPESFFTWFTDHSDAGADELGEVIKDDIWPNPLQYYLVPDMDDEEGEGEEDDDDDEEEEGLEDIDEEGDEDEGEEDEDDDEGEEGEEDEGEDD

Row | SMILES | isothermal dose-response of PKCα [1] | location of PKCα (soluble / insoluble fraction) [2] | effect on translation of the luciferase reporter gene [3] | thermal stability shift of NPM (CETSA) [4] | thermal stability shift of EEF1D (CETSA) [5] | thermal stability shift of SET (CETSA) [6] | thermal stability shift of RPSA (CETSA) [7] | upregulating efficacy on luciferase gene translation diminished after NPM depletion [8] [%]
1 | CCC/C=C/C=C/C(=O)O[C@H]1/C(=C/C(=O)OC)C[C@H]2C[C@H]([C@@H](C)O)OC(=O)C[C@H](O)C[C@@H]3C[C@H](OC(C)=O)C(C)(C)[C@](O)(C[C@@H]4C/C(=C/C(=O)OC)C[C@H](/C=C/C(C)(C)[C@]1(O)O2)O4)O3 [bryostatin 1] | dose-dependent thermal destabilization | moved to insoluble fraction |  |  |  |  |  | 
2 | CN(C)CCc1ccc(O)cc1 [hordenine, N,N-dimethyltyramine] |  |  | increase the translation | significant thermal stabilization | did not | did not | did not | 72.7

From patent publication US11105813B2, “Method for target protein identification using thermal stability shift-based fluorescence difference in two-dimensional gel electrophoresis” (priority 2016, dated 2021)
